The text below walks through data of patent US11680070B2, “Thieno[2,3-c]pyridazin-4(1H)-one derivative and application thereof” (MEDSHINE DISCOVERY INC., priority 2018, dated 2023).

Data set [1] concerns the target human acetyl-CoA carboxylase 2 (hACC2) (Homo sapiens, UniProt O00763). The data set can be described thus: In vitro ACC enzyme inhibition (ADP luminescence), hACC2. Type of data set: biochemical. The conditions noted are these: human ACC2 enzyme; 15 min pre-incubation, 1 hour reaction at room temperature. On the procedure: (§1) The IC50 value was determined to evaluate the ability of the test compounds to inhibit acetyl-CoA carboxylase (ACC).
(§2) Protein: human acetyl-CoA carboxylase 1 (hACC1) and human acetyl-CoA carboxylase 2 (hACC2).
(§3) Cofactor: acetyl coenzyme A, ATP
(§4) Activator: potassium citrate
(§5) 1. 1 time of the enzyme/substrate/cofactor was added to the wells of the well plate.
(§6) 2. According to Acoustic technology, the solutions of the compounds in DMSO were added to the above enzyme mixture and the mixture was pre-incubated for 15 minutes.
(§7) 3. ATP was added to initiate the reaction and the mixture was shaken until thoroughly mixed.
(§8) 4. The mixture was incubated for 1 hour at room temperature.
(§9) 5. After quenching the reaction, the incubation continued for 40 minutes.
(§10) 6. After adding the detection reagents, the mixture was incubated for 30 minutes.
(§11) 8. Data analysis: based on the standard curve of ADP, the luminescence was converted into ADP product concentration and the enzyme activity was calculated. Graphpad Prism software was used to fit the curve to obtain the IC50 value.

Data set [2] deals with human acetyl-CoA carboxylase 1 (hACC1) (Homo sapiens, UniProt Q13085). As to the kind of experiment: In vitro ACC enzyme inhibition (ADP luminescence), hACC1. Type of data set: biochemical. The conditions noted are these: human ACC1 enzyme; 15 min pre-incubation, 1 hour reaction at room temperature. As for the experimental part: as §1, §2, §3, §4, §5, §6, §7, §8, §9, §10, §11

Data set [3] is described as follows: Pharmacokinetics in C57BL/6 mice (iv and oral). It counts as in vivo. The conditions noted are these: mouse, male C57BL/6 mice, plasma; for AUC(0-t) / clearance / half-life: iv 2.0 mg/kg, oral 10 mg/kg (route not given); for half-life: read-out: Half-life T1/2 (converted); for bioavailability: oral 10 mg/kg vs iv 2.0 mg/kg, read-out: Bioavailability F. On the procedure: Testing the pharmacokinetics characteristics of the compounds in C57BL/6 mice
C57BL/6 mice (male, 18-30 g, 7-9 weeks, Shanghai Lingchang Biotechnology Co., Ltd.)
The clear solution of the test compounds (0.5 mg/mL in 10% DMSO, 10% polyethylene glycol stearate, 80% water) was injected via tail vein into 4 male C57BL/6 mice (overnight fasted, 7-9 weeks), at a dose of 2.0 mg/kg. The suspensions or clear solutions of the test compounds (1 mg/mL in 10% PEG400, 90% (0.5% methylcellulose+0.2% Tween 80)) were administrated by oral gavage to 4 male C57BL/6 mice (overnight fasted, 7-9 weeks), at a dose of 10 mg/kg.
Two mice were set in each group and subjected to blood sampling alternatively, 4 to 5 time points per mouse. At 0.0833h (IV group only), 0.25 h, 0.5 h, 1.0 h, 2.0 h, 4.0 h, 6.0 h, 8.0 h, and 24 h after the intravenous or oral administration, about 30 μL of blood was collected by saphenous vein puncture and added into an anticoagulation tube with EDTA-K2, and the plasma was isolated by centrifugation. The drug plasma concentration was determined by LC-MS/MS, and WinNonlin™ Version 6.3 (Pharsight, Mountain View, Calif.) pharmacokinetic software was used to calculate relevant pharmacokinetic parameters using the non-compartmental model linear logarithmic trapezoidal method.

For data set [4], the system named is NASH mouse model induced by HFD+CCl4. The data set can be described thus: In vivo pharmacodynamic study in NASH mouse model induced by HFD+CCl4. The following applies: HFD+CCl4 mice; oral gavage QD Day 0-27; WX004B 0.5, 1, 3 mg/kg; reference I-181 3 mg/kg. The text has this:
The objective of this research is to study the effect of the compound on improving NASH and liver fibrosis in HFD+CCl4 mouse model, with 1-181 as the reference compound.
1-181 is an Acetyl-CoA carboxylase inhibitor and is currently undergoing a phase II clinical study on non-alcoholic fatty liver disease (NAFLD). The HFD+CCl4 mouse model used in this study is an animal model simulating human non-alcoholic fatty liver disease evolving into NASH, high-fat diet causes the fat accumulation and steatosis in liver cells; CCl4 (intraperitoneal injection, twice a week) simulates the “second hit” of liver injury.
The modeling for this experiment included two steps of high-fat feed and CCl4 induction. Firstly, the mice were fed with high-fat feed to induce non-alcoholic fatty liver, and mice with body weight >38 g were selected. The mice were continuously fed with high-fat feed, and simultaneously intraperitoneally injected with 25% CCl4, […], twice a week, for a total of four weeks. The day of starting CCl4 administration was set as day 0, and the time of starting CCl4 administration was set as hour 0. On the day of starting CCl4 administration, the intragastric administration was started, and the administration volume of each group was 5 mL/kg, once a day for 4 weeks (28 days). […]

Each structure is given as a SMILES string.

human acetyl-CoA carboxylase 2 (hACC2), sequence (O00763 whole entry): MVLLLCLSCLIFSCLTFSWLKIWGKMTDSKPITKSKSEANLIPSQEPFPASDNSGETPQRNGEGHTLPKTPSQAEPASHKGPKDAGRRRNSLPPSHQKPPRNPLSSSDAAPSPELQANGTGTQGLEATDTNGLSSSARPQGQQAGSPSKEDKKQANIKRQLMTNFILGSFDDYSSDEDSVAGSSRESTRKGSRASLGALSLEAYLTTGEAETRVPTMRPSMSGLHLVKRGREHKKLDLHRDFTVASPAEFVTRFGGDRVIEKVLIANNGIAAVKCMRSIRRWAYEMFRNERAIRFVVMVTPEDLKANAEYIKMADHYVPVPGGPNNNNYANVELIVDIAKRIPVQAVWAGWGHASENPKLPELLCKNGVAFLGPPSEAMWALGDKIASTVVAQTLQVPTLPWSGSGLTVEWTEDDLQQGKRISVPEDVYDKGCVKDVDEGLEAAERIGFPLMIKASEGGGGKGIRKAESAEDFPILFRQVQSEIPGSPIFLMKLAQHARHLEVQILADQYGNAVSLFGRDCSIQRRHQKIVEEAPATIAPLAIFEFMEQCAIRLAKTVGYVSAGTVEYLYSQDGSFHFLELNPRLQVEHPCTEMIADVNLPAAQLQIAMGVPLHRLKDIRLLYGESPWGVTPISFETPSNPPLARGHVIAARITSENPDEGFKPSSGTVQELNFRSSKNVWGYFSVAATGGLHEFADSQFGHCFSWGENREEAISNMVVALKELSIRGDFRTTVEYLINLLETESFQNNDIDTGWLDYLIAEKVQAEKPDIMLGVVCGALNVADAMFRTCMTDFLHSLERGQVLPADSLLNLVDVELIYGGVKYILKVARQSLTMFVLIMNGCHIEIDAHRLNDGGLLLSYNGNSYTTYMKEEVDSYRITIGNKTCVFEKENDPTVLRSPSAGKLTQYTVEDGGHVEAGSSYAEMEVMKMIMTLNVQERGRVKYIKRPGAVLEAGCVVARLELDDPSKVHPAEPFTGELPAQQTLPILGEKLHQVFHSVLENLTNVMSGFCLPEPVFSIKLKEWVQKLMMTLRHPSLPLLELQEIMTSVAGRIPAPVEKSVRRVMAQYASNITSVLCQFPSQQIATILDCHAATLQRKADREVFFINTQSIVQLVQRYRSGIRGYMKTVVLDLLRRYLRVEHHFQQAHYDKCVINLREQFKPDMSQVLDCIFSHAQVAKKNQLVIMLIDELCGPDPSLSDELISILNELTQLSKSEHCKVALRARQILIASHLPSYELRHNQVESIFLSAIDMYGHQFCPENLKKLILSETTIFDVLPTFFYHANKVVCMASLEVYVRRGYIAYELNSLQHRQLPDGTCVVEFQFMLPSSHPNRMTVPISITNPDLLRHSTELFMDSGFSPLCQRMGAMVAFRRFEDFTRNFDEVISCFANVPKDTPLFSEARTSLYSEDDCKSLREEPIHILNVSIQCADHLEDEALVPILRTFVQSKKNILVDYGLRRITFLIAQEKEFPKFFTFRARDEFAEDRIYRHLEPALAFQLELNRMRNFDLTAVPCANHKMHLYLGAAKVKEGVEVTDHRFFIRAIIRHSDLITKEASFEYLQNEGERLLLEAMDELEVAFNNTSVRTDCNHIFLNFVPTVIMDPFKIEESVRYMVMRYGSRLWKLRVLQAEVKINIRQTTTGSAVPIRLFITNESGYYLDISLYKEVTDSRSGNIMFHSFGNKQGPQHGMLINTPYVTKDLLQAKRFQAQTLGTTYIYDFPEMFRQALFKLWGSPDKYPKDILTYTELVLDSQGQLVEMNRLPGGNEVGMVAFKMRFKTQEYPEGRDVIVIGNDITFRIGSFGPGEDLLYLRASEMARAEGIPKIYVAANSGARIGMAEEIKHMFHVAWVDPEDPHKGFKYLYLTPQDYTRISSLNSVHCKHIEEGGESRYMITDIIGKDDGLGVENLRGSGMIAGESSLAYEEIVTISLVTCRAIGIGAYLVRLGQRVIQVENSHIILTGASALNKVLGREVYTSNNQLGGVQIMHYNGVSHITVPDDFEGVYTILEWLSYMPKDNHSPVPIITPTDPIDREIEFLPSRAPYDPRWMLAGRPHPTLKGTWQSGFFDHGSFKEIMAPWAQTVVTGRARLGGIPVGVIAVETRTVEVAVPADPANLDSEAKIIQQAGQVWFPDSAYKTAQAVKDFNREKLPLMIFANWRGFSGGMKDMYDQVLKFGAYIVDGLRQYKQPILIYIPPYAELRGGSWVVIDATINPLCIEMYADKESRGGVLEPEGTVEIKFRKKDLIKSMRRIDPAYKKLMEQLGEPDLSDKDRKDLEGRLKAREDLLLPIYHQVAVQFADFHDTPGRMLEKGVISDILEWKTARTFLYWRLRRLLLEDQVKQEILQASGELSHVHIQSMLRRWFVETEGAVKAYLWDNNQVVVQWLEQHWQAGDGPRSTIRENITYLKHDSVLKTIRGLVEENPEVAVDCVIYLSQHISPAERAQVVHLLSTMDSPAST

As usually defined, the IC50 is the concentration needed to halve the response being measured. A low value points to inhibition by little substance. As to `COc1ccccc1C(Cn1nc(C(C)(C)C(=O)O)c(=O)c2c(C)c(-c3ncco3)sc21)OC1CCN(C(C)=O)CC1` (racemic) [WX011], the concentration for half-maximal inhibition (IC50) in data set [1] was 10.9 nM; in data set [2], 26 nM.

For the compound `COc1ccccc1C(Cn1nc(C(C)(C)C(=O)O)c(=O)c2c(C)c(-c3ncco3)sc21)OC1CCN(S(C)(=O)=O)CC1` (racemic) [WX012], the IC50 in data set [1] was 5.7 nM; in data set [2], 14.2 nM.

Consider `COC(=O)N1CCC(OC(Cn2nc(C(C)(C)C(=O)O)c(=O)c3c(C)c(-c4ncco4)sc32)c2ccccc2OC)CC1` (racemic) [WX015], for which the half-inhibitory concentration (IC50) was 7 nM in data set [1] and 20.2 nM in data set [2].

In the case of `COc1ccccc1C(Cn1nc(C2(C(=O)O)CCCC2)c(=O)c2c(C)c(-c3ncco3)sc21)OC1CCOCC1` (single isomer, unassigned) [WX001B], the IC50 in data set [1] was 8 nM; in data set [2], 4.9 nM.

On to `COc1ccccc1C(Cn1nc(CC(=O)O)c(=O)c2c(C)c(-c3ncco3)sc21)OC1CCOCC1` (single isomer, unassigned) [WX003B], for which the 50% inhibitory concentration (IC50) in data set [1] is 3.4 nM; in data set [2], 10.9 nM.

Regarding `COc1ccccc1C(Cn1nc(CC(=O)O)c(=O)c2c(C)c(-c3ncco3)sc21)OC1CCOCC1` (stereo not drawn) [WX002], the half-maximal inhibitory concentration (IC50) in data set [1] was determined as 8.7 nM; in data set [2] it was 53.6 nM.

For orientation: AUC(0-t) means the area under the concentration-time curve up to a stated or last time point. In data set [3], `COc1ccccc1[C@H](Cn1nc(C(C)(C)C(=O)O)c(=O)c2c(C)c(-c3ncco3)sc21)OC1CCOCC1` [WX004B] returned an exposure AUC(0-t) of 7.21 µM·h. Further, in data set [4], the “Efficacy in NAS (anti-NASH effect)” value is “the same efficacy in both NAS and fibrosis as the reference compound at a higher dose”; the “Efficacy in fibrosis (anti-fibrosis effect)” value was “the same efficacy in both NAS and fibrosis as the reference compound at a higher dose”.

With `COc1ccccc1C(Cn1nc(C2(C(=O)O)CC2)c(=O)c2c(C)c(-c3ncco3)sc21)OC1CCOCC1` (stereo not drawn) [WX005], the half-maximal inhibitory concentration (IC50) was determined as 45 nM in data set [1] and 46.6 nM in data set [2].

Regarding `COc1ccccc1C(Cn1nc(C2(C(=O)O)CCC2)c(=O)c2c(C)c(-c3ncco3)sc21)OC1CCOCC1` (stereo not drawn) [WX006], the 50% inhibitory concentration (IC50) turned out to be 22.1 nM in data set [1] and 20.3 nM in data set [2].

For the compound `COc1ccccc1[C@H](Cn1nc(C2(C(=O)O)CCCCC2)c(=O)c2c(C)c(-c3ncco3)sc21)OC1CCOCC1` [WX007B], the 50% inhibitory concentration (IC50) in data set [1] stood at 12.6 nM; in data set [2], 9.1 nM.

A word on the bioavailability: it is dose-corrected exposure relative to a reference, in per cent. Turning to `COc1ccccc1[C@H](Cn1nc(C2(C(=O)O)CCOCC2)c(=O)c2c(C)c(-c3ncco3)sc21)OC1CCOCC1` [WX008B], in data set [3], the clearance is 51.9 mL/min/kg, the half-life is 36 min, the bioavailability was found to be 5.86% and the area under the curve AUC(0-t) came out at 0.304 µM·h. The same compound gave a half-inhibitory concentration (IC50) in data set [1] of 13.9 nM. In data set [2], the IC50 worked out at 5.3 nM.

As to `COc1ccccc1[C@H](Cn1nc(C(F)(F)C(=O)O)c(=O)c2c(C)c(-c3ncco3)sc21)OC1CCOCC1` [WX009B], in data set [3], the clearance stood at 92.1 mL/min/kg, the half-life is 36.6 min, the bioavailability came to 1.26% and the AUC(0-t) amounted to 0.04 µM·h. Moreover, the IC50 in data set [1] was 11 nM. The compound further had a concentration for half-maximal inhibition (IC50) in data set [2] of 5.6 nM.

Consider `COc1ccccc1C(Cn1nc(C2(C(=O)O)CCNCC2)c(=O)c2c(C)c(-c3ncco3)sc21)OC1CCOCC1` (stereo not drawn) [WX010], for which the IC50 in data set [1] amounted to 70.7 nM; in data set [2], 83.9 nM.

Take `COc1ccccc1C(Cn1nc(C(C)(C)C(=O)O)c(=O)c2c(C)c(-c3ncco3)sc21)OC1CCN(C(=O)OC(C)(C)C)CC1` (stereo not drawn) [WX014]: the values for the IC50 in data set [1] and in data set [2] were 7.2 nM and 26 nM, respectively.

`COc1ccc(F)cc1[C@H](Cn1nc(C(C)(C)C(=O)O)c(=O)c2c(C)c(-c3ncco3)sc21)OC1CCOCC1` [WX016B]: the IC50 in data set [1] was 4.8 nM; in data set [2], 11.1 nM.
